Results on three compounds are retold here after PMC9812224, “Analysis of the conformational heterogeneity of the Rieske iron–sulfur protein in complex III2 by cryo-EM” (IUCrJ, 2023).

Each structure is given as a SMILES string.

The assay addresses T1, CIII2 (respiratory complex III dimer, cytochrome bc1 complex) (Yarrowia lipolytica, UniProt Q9B6D0).
T1 construct: gene COB; native homodimeric complex from DDM-solubilized mitochondrial membranes after depletion of His-tagged complex I; untagged; ion exchange and size exclusion; with Cytochrome c1, heme protein, mitochondrial; Cytochrome b-c1 complex subunit 1, mitochondrial; Cytochrome b-c1 complex subunit 2, mitochondrial; Cytochrome b-c1 complex subunit 6; Cytochrome b-c1 complex subunit 7; Cytochrome b-c1 complex subunit 8; Cytochrome b-c1 complex subunit 9; Cytochrome b-c1 complex subunit 10
T1 sequence (Q9B6D0 1-385): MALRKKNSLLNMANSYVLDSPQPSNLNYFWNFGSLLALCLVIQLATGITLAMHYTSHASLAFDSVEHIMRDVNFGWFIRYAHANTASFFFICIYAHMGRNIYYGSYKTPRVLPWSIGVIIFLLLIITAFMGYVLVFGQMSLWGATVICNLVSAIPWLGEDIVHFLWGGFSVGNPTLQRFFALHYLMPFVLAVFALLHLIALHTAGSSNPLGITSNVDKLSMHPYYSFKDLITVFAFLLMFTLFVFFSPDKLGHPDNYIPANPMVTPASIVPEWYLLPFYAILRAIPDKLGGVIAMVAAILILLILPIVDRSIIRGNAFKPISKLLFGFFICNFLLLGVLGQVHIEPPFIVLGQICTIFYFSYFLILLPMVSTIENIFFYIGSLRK
The assay is described as follows: cryo-EM structure. Type of assay: binding. The conditions noted are these: pH 8.0.

Consider `O=C1C(O)=C([C@H]2CC[C@H](c3ccc(Cl)cc3)CC2)C(=O)c2ccccc21` [atovaquone], for which the cryo-EM structure entry (Qo site (cyt b; hydrogen bond to His190 of Rip1), with antimycin A, 120 µM) is on record as “Atovaquone was resolved in the Qo site in the +atovaquone+antimycin A sample”.

On to `CCCCCCCCCCc1c(C)c(O)c(OC)c(OC)c1O` [decylubiquinol], for which, where the note is “Qi site (cyt b only), 1 mM, substrate analogue”, the cryo-EM structure result is “After its addition, decylubiquinol was resolved in the Qi site”.

Regarding `CCCCCCCCCCC1=C(C)C(=O)C(OC)=C(OC)C1=O` [decylubiquinone], the cryo-EM structure entry (Qo site, possible low occupancy, 330 µM with 25 mM sodium ascorbate, quinone analogue) was “density in the Qo site increased, indicating a possible low occupancy of DQ”.
